Experimental data taken from US20180280504A1, “GLYCAN-INTERACTING COMPOUNDS AND METHODS OF USE” (SIAMAB THERAPEUTICS, INC., priority 2014, published 2018).
Each block holds one molecule with its values, some of them ahead of it.

How the values were obtained:
[1] = E3-STn allograft model, average weight of mice; format: in vivo, mouse
Protocol: Balb/c mice were used as part of the test system. 50 female mice were inoculated with E3-STn cells to cause STn-expressing tumor formation. Mice were maintained under pathogen-free conditions with irradiated feed and autoclaved water.
The average weight of mice in each treatment group was also determined on days 1, 4, 6, 8, 11, 13, 15, 18, 20, 22, 26, 27, 29, 32, 34, 36, 39 and 41 following the first administration of each test article (see the following Table). The percent gain or loss over initial weight values is listed in parentheses.

[2] = PAA-glycan ELISA, AcSTn-PAA; format: binding; settings: 200 ng/well PAA antigen; 1:5 dilutions from 1 μM
Protocol: (§1) 18D2 and 18C7 antibodies were further characterized by ELISA comprising antigens other than BSM. ELISAs were carried out according to Example 2, with the exception that ELISA plates were coated with biotinylated polyacrylamide (PAA) particles comprising either AcSTn (AcSTn-PAA), GcSTn (GcSTn-PAA) or Tn (Tn-PAA) as antigens. These particles present the antigens in a multivalent format. Briefly, 96-well ELISA plates were coated with 200 ng/well of each PAA antigen and blocked with PBS with 1% OVA. Antibodies were serially diluted at 1:5 in PBS with 1% OVA using an initial concentration of 1 μM. After blocking, antibodies were added to the plates and plates were incubated for 1.5 hours at room temperature. Binding of anti-STn antibodies was detected using a goat anti-mouse IgG-HRP conjugated antibody (Jackson Immunoresearch Laboratories, West Grove, Pa.). The reaction was developed by addition of HRP substrate and hydrogen peroxide. The reaction was then stopped by the addition of sulfuric acid (1.6 M). Optical densities were measured at 490 nm. A dose-response curve was generated using readings at each concentration tested and a non-linear regression curve was generated with four-parameter modeling to determine EC50 values for each antibody.

[3] = system: ST6GalNAc 1 transfected MDA-MB-231 cells (MDA-STn+); assay: Flow cytometry-based analysis of antibody binding, STn+ cells; parameters: species or system human; settings: ST6GalNAc 1 transfected MDA-MB-231 cells; APC anti-mouse IgG
Protocol: Flow cytometry-based analysis is carried out to elucidate the curve-dose response for binding of antibodies to cell surface antigens. For these analyses, three cell lines are employed.
MDA-MB-231 cells are human breast cancer cells. They are grown in Earle's Minimum Essential Medium supplemented with 10% fetal calf serum (FCS), 100 μg/ml penicillin, 100 UI/ml streptomycin and 45 μg/ml gentamycin. MCF-7 cells are also human breast cancer cells and are grown under the same conditions as MDA-MB-231 cells. Stably transfected versions of MDA-MB-231 and MCF-7 cells (clone TAH3.P10 for MDA-MB-231 cells and clone A12.1 for MCF-7 cells) that over express GalNAc α2,6-sialyltransferase (ST6GalNAc 1,) are also cultured under the same conditions with the exception of an added 1 mg/ml of G418 to support cells expressing the transgene. ST6GalNAc 1 is an enzme capable of sialylating GalNAc. As a result of over expression, transfected cells express high levels of Neu5Ac-STn (see Julien, S. et al., Glycoconjugate journal. 2001. 18, 883-93; the contents of which are herein incorporated by reference in their entirety). E3 cells are murine breast cancer cells. They are cultured in Dulbecco's E4 medium with 10% FCS. Stably transfected versions of E3 cells expressing high levels of Neu5Gc-STn (E3-STn) are cultured with 600 μg/ml of G418 and 200 μg/ml hygromycin. During growth and maintenance of experimental cells, trypsin is not used for cell passaging.
For analysis, cells are harvested using StemPro Accutase (Life Technologies, Carlsbad, Calif.) and washed with PBS comprising 5% FBS before pelleting by light centrifugation. Cell numbers and viability are determined by trypan blue dye exclusion analysis and cell concentrations are adjusted to 5×10^6 cells/ml in PBS with 5% FBS. 50 μl of cells are added to each well of an assay plate. Cells are combined with 50 μl solutions of antibody being analyzed or control antibodies and incubated for 1 hour at 4° C. Cells are washed and pelleted twice with PBS with 5% FBS before being treated with 100 μl of PBS with 5% FBS comprising a 1:1,500 dilution of anti-mouse IgG (Southern Biotech, Birmingham, Ala.,) conjugated to allophycocyanin (APC). Cells are incubated for 30 min at 4° C. before washing and resuspending in 200 μl of propidium iodide (PI) diluted 1:1000 in PBS with 5% FBS. Treated cells are then subjects to flow cytometry analysis and 10,000 events are acquired for each sample.

[4] = PAA-glycan ELISA, GcSTn-PAA; format: binding; settings: 200 ng/well PAA antigen; 1:5 dilutions from 1 μM
Protocol: as §1

Average Weight ([1]; day 1 of study): 16.7 g
Average Weight ([1]; day 4 of study): 16.5 g
Average Weight ([1]; day 6 of study): 17 g
Average Weight ([1]; day 8 of study): 17.3 g
Average Weight ([1]; day 11 of study): 17.1 g
Average Weight ([1]; day 13 of study): 17.4 g
Average Weight ([1]; day 15 of study): 17.8 g
Average Weight ([1]; day 18 of study): 17.6 g
Average Weight ([1]; day 20 of study): 17.8 g
Average Weight ([1]; day 22 of study): 17.9 g
Average Weight ([1]; day 26 of study): 18.3 g
Average Weight ([1]; day 27 of study): 18.5 g
Average Weight ([1]; day 29 of study): 18.9 g
Average Weight ([1]; day 32 of study): 18.9 g
Average Weight ([1]; day 34 of study): 19.2 g
Average Weight ([1]; day 36 of study): 18.5 g
Average Weight ([1]; day 39 of study): 19.1 g
Average Weight ([1]; day 41 of study): 19.2 g
Molecule: CC(=O)O[C@H]1C(=O)[C@@]2(C)[C@H]([C@H](OC(=O)c3ccccc3)[C@]3(O)C[C@H](OC(=O)[C@H](O)[C@@H](NC(=O)c4ccccc4)c4ccccc4)C(C)=C1C3(C)C)[C@]1(OC(C)=O)CO[C@@H]1C[C@@H]2O [Paclitaxel, reference compound]

EC50 [2]: 152 nM
EC50, flow cytometry binding to cell-associated STn [3]: 2.42 nM
EC50 [4]: 73.2 nM
B1: 3F1: commercially available mouse anti-STn monoclonal antibody (SBH Sciences), IgG1; VH SEQ ID NO: 59, VL SEQ ID NO: 60 (antibody, V domains shown)
VH: QVQLQQSDAELVKPGASVKISCKASGYTFTDHAIHWVKQKPEQGLDWIGYISPGNGDIKYNEKFKDKVTLTADKSSSTACMHLNSLTSEDSAVYFCKRSLLALDYWGQGTTLTVSS
VL: DIVMTQSHKFMSTSVGDRVSITCKASQDVGTNIAWYQQKPGRSPKVLIYSASTRHTGVPDRFTGSGSGTDFTLTISNVQSEDLTDYFCQQYSSFPLTFGVGTKLELK
